These results are taken from patent publication US11980613B2, “Methods for reversing HIV latency using BAF complex modulating compounds” (priority 2018, dated 2024).

This assay relates to BAF target genes c-MYC and p21. Briefly: Biomarkers: mRNA of BAF target genes p21 and c-MYC in CD4+ T cells. In kind it is cell-based, human. On the procedure:
[drawing 27] i. BRD-K25923209: To Macrocycle 2141-039b (0.804 g, 1.550 mmol) dissolved in MeOH (Volume: 15.50 ml) was added tin(II) chloride dihydrate (3.50 g, 15.50 mmol). The reaction mixture was stirred at 40° C. for 24 h until LC/MS indicated complete consumption of starting material (nitro) and presence of desired mass. Upon completion, the reaction mixture was concentrated and the resulting residue was dissolved in EtOAc and washed with 2 M aq. KOH (2×). The combined aqueous layers were washed with EtOAc (4×). The resulting organic layers were washed with brine, saturated aqueous NaHCO3, water, and brine, dried over MgSO4, filtered, and concentrated. The crude aniline was sufficiently pure to use in the capping step and therefore was used without purification. Note: The workup as described above produces a lot of precipitate/emulsion. This can be overcome by extensive washing or alternately, the reaction can be quenched with 1 volume of 1 M NaOH, stirred with celite for 10 minutes, and filtered prior to workup to yield 33.8% (17.2 mg) over 3 steps. (M+H)^+ calculated=489.286 (M+H)^+ average (3 ESI replicates)=489.2866±0.92. j. BRD-K80443127: A screwtop vial was charged with aniline (BRD-K25923209) (43.3 mg, 0.089 mmol) and CH2Cl2 (Volume: 886 μl, Density: 1.325 g/ml). Isopropyl chloroformate (115 μl, 0.115 mmol) and DIEA (46.4 μl, 0.266 mmol) were added dropwise and reaction stirred under ambient conditions for 1 h. […] The reaction mixture was loaded directly onto SiO2 and purified via ISCO (1-12% MeOH in CH2Cl2, 20 min); Collected fractions 40-44 to afford the product as a yellow oil in 33.8% (17.2 mg) yield. (M+H)^+ calculated=575.3228 (M+H)^+ average (3 ESI replicates)=575.3235±1.32. k. BRD-K04244835: A 2.5 mL microwave vial was charged with aniline (BRD-K25923209) (40 mg, 0.082 mmol) and EtOH (Volume: 819 μl, Density: 0.81 g/ml). Squaramide (CRE-III-001) (20.75 mg, 0.098 mmol), DIEA (42.8 μl, 0.246 mmol), and DMAP (2.000 mg, 0.016 mmol) were added in sequence and the vial was sealed. […] (M+H)^+ calculated=654.365 (M+H)^+ average (3 ESI replicates)=654.3661±1.64. […]

`CO[C@H]1CN(C)C(=O)c2cc(NC(=O)OC(C)C)ccc2OC[C@H](C)N(Cc2ccc(-c3ccccn3)cc2)C[C@@H]1C` [BRD-K80443127]: the “differential expression of c-MYC and p21” value (CD4+ T cells from 3 healthy donors, 3 μM, 16 hours) was “consistent with BAF inhibition”. For the same molecule, where the note is “three patients, 10 μM”, the C-MYC transcript levels result is recorded as “significant decrease” and the p21 transcript levels entry is “significant decrease”.
